Molecules are shown by their SMILES. Values after ≈ are worked out from the molar mass of the structure shown.

For 95 compounds, IC50 results are on record in the Kinase Knowledgebase extract (Sharma et al. 2016).

Chain of EGFR (P00533 whole entry, looked up): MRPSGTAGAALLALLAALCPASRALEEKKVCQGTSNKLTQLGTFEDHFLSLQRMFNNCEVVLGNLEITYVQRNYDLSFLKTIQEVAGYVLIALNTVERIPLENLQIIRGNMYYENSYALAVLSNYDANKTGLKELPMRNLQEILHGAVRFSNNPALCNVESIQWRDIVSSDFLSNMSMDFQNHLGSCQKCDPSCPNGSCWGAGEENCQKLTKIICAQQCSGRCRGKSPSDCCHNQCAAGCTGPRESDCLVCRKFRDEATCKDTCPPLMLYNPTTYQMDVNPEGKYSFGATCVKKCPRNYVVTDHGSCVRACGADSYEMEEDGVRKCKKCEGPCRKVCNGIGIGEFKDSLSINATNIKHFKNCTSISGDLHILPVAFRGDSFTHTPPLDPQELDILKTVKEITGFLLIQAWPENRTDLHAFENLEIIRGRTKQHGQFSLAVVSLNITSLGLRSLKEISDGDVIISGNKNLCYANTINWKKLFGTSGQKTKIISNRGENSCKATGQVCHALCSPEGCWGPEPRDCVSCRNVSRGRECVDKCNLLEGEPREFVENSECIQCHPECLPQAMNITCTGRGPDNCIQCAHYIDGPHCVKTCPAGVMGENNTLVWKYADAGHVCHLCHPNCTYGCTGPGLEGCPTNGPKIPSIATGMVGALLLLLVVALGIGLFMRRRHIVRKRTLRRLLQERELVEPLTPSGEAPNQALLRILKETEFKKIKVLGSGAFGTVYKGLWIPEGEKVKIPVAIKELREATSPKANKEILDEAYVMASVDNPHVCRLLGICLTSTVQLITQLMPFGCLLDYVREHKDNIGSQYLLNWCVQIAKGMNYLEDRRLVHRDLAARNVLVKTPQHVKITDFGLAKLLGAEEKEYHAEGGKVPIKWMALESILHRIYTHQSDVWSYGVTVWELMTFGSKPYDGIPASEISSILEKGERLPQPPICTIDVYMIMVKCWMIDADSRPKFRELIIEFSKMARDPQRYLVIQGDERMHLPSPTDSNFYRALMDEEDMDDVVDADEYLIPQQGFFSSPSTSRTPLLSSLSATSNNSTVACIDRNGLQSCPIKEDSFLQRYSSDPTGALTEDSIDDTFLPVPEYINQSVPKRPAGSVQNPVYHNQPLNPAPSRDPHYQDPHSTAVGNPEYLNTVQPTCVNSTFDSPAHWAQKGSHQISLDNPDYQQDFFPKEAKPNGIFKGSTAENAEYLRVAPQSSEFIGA

The test addresses EGFR (UniProt P00533).
On to `COc1cc(Nc2ncnc(-n3cc(CCO)c4ccccc43)n2)cc(OC)c1OC`, for which the IC50 is greater than 4.5 µg/mL.
With `COc1ccc(Nc2ncnc(N(C)C3CCN(Cc4ccccc4)C3)n2)cc1OC` (stereo not given) the figure was greater than 4.5 µg/mL.
With `COc1ccc(Nc2ncnc(-n3c(N)nc4ccccc43)n2)cc1OCCN1CCOCC1`, the IC50 was greater than 4.5 µg/mL.
As to `COc1cc(Nc2ncnc(-n3c(=O)sc4ccccc43)n2)cc(OC)c1OC`, the IC50 is greater than 4.5 µg/mL.
The value for `Nc1ncnc(Nc2cccc(Nc3ncnc(N)n3)c2)n1` was greater than 4.5 µg/mL; that for `COCCOc1cc(Nc2ncnc(Nc3ccc(C)c(O)c3)n2)ccc1OC` was less than 0.4 µg/mL.
`COc1cc(Nc2ncnc(-n3c(NCc4ccccc4)nc4ccccc43)n2)cc(OC)c1OC`: the IC50 was 2.4 to 3.5 µg/mL (≈ 4.96 to 7.24 µM).
With `Fc1ccc(Nc2ncnc(-n3cccc3)n2)cc1` the figure was greater than 4.5 µg/mL; with `Cc1ccc2c(c1)CCCN2c1ncnc(NCc2ccc(C(=O)O)cc2)n1`, greater than 4.5 µg/mL; with `CC(=O)Nc1ccc(Nc2ncnc(-n3c(N)nc4ccccc43)n2)cc1`, greater than 4.5 µg/mL.
As for `CN(C)c1ccc(Nc2ncnc(-n3c(N)nc4ccccc43)n2)cc1`, the IC50 fell in the range of 2.4 to 3.5 µg/mL (≈ 6.93 to 10.1 µM).
Compound `COc1cc(Nc2ncnc(Nc3ccc(O)nc3)n2)cc(OC)c1OC` gave an IC50 of 0.4 to 2.4 µg/mL (≈ 1.08 to 6.48 µM).
In the case of `Cc1ccc2c(c1)CCCN2c1ncnc(Nc2ccc(F)c(F)c2)n1`, the IC50 was 0.4 to 2.4 µg/mL (≈ 1.13 to 6.79 µM).
The value for `COc1cccc(Nc2ncccc2-c2ncnc(Nc3cc(OC)c(OC)c(OC)c3)n2)c1` was 3.5 to 4.5 µg/mL (≈ 7.6 to 9.77 µM).
`COc1cc(Nc2ncnc(-n3c(N)nc4ccccc43)n2)cc(OC)c1OC` came in with an IC50 greater than 4.5 µg/mL.
For the compound `COc1cc(NC(=O)Nc2ncnc(Nc3cc(OC)c(OC)c(OC)c3)n2)cc(OC)c1`, the IC50 was greater than 4.5 µg/mL.
As to `COC(=O)c1ccc(-c2cc(Nc3ncnc(NCCN4CCOCC4)n3)[nH]n2)cc1`, the IC50 was in the range of 2.4 to 3.5 µg/mL (≈ 5.65 to 8.25 µM).
With `COc1cc(Nc2ncnc(-n3c(Nc4ccccc4)nc4ccccc43)n2)cc(OC)c1OC` the figure was greater than 4.5 µg/mL.
With `COc1cc(Nc2ncnc(Nc3nc(-c4ccccc4)cs3)n2)cc(OC)c1OC`, the IC50 was greater than 4.5 µg/mL.
Compound `CCOc1ccc(Nc2ncnc(Nc3ccc(OCc4ccccc4)cc3)n2)cc1OCC` returned a half-maximal inhibitory concentration (IC50) of 0.4 to 2.4 µg/mL (≈ 0.874 to 5.25 µM).
Compound `c1ccc(Cn2ncc3cc(Nc4ncnc(Nc5ncccn5)n4)ccc32)cc1` came in with an IC50 of 0.4 to 2.4 µg/mL (≈ 1.01 to 6.07 µM).
With `COc1cc(Nc2ncnc(Nc3cccc(C(C)=O)c3)n2)cc(OC)c1OC` the figure was 0.4 to 2.4 µg/mL (≈ 1.01 to 6.07 µM); with `COc1cc(Nc2ncnc(N3c4ccccc4CCC3C)n2)cc(OC)c1OC` (stereo not given), 0.4 to 2.4 µg/mL (≈ 0.982 to 5.89 µM).
For `COc1cc(Nc2ncnc(-n3c(Nc4cccc(C(N)=O)c4)nc4ccccc43)n2)cc(OC)c1OC`, the IC50 is greater than 4.5 µg/mL.
With `CCOc1cccc(Nc2ncnc(Nc3ccc(OC)c(OC)c3)n2)c1` the figure was greater than 4.5 µg/mL; with `COc1cc(Nc2ncnc(-c3cccnc3Nc3cccc(C(N)=O)c3)n2)cc(OC)c1OC`, greater than 4.5 µg/mL; with `COc1cc(Nc2ncnc(-c3cccnc3NCCN3CCCCC3)n2)cc(OC)c1OC`, greater than 4.5 µg/mL.
With `c1csc(-c2ncnc(Nc3ccc4c(c3)OCO4)n2)c1` the figure was greater than 4.5 µg/mL; with `COc1cc(Nc2ncnc(-c3cccnc3NCCCN)n2)cc(OC)c1OC`, greater than 4.5 µg/mL.
Turning to `COc1cc(Nc2ncnc(-n3c(Nc4ccc5[nH]ccc5c4)nc4ccccc43)n2)cc(OC)c1OC`, the IC50 lay within 3.5 to 4.5 µg/mL (≈ 6.88 to 8.85 µM).
With `COc1cc(Nc2ncnc(-n3c(Nc4ccc5cn[nH]c5c4)nc4ccccc43)n2)cc(OC)c1OC`, the IC50 is greater than 4.5 µg/mL.
The value for `CN(c1ccc(F)c(Cl)c1)c1ncnc(Nc2cccc(Br)c2)n1` was greater than 4.5 µg/mL.
The compound `COc1cc(Nc2ncnc(-c3cccnc3NC3CCN(Cc4ccccc4)CC3)n2)cc(OC)c1OC` had an IC50 greater than 4.5 µg/mL.
For `COc1cc(Nc2ncnc(-c3cccnc3NCc3ccc(F)cc3)n2)cc(OC)c1OCCN1CCOCC1`, the IC50 was in the range of 2.4 to 3.5 µg/mL (≈ 4.27 to 6.23 µM).
`CCN(CC)C(=O)C1CCCN(c2ncnc(Nc3cc(OC)c(OC)c(OC)c3)n2)C1` (stereo not given) gave an IC50 greater than 4.5 µg/mL.
`COCCCNc1ncnc(N2CCCc3cc(C)ccc32)n1` had an IC50 of 3.5 to 4.5 µg/mL (≈ 11.2 to 14.4 µM).
Compound `CCc1ccc(Nc2nc3ccccc3n2-c2ncnc(Nc3cc(OC)c(OC)c(OC)c3)n2)cc1` yielded an IC50 of less than 0.4 µg/mL.
The value for `N#CCc1ccc(Nc2ncnc(Nc3ccc4c(cnn4Cc4ccccc4)c3)n2)cc1` was less than 0.4 µg/mL.
With `COc1ccc(CNc2ncnc(Nc3cc(OC)c(OC)c(OC)c3)n2)cc1` the figure was greater than 4.5 µg/mL.
The value for `COc1cc(Nc2ncnc(NC(=O)Cc3ccccc3)n2)cc(OC)c1OC` was 0.4 to 2.4 µg/mL (≈ 1.01 to 6.07 µM).
In the case of `COc1cc(Nc2ncnc(-n3c(NCc4ccccc4C)nc4ccccc43)n2)cc(OC)c1OC`, the 50% inhibitory concentration (IC50) was greater than 4.5 µg/mL.
The value for `COC(=O)c1ccc(-c2cc(Nc3ncnc(Nc4cc(F)cc(F)c4)n3)[nH]n2)cc1` was greater than 4.5 µg/mL; that for `c1ccc(CCNc2ncnc(Nc3ccc4c(cnn4Cc4ccccc4)c3)n2)cc1` was greater than 4.5 µg/mL; that for `CN(c1cccc(Cl)c1)c1ncnc(Nc2ccc(Cl)c(Cl)c2)n1` was greater than 4.5 µg/mL.
Compound `COc1cc(Nc2ncnc(Nc3ccc(O)cc3Cl)n2)cc(OC)c1OC` returned an IC50 of 0.4 to 2.4 µg/mL (≈ 0.991 to 5.94 µM).
With `COc1cc(Nc2ncnc(N3CCc4ccc([N+](=O)[O-])cc43)n2)cc(OC)c1OC` the figure was greater than 4.5 µg/mL; with `COc1cc(Nc2ncnc(-c3ccc(C)cc3)n2)cc(OC)c1OC`, greater than 4.5 µg/mL.
With `O=C(Nc1ccc(Nc2ncnc(-n3c(=O)[nH]c4ccccc43)n2)cc1)O[C@@H]1CCOC1` the figure was greater than 4.5 µg/mL; with `CC(=O)Nc1ccc(Nc2ncnc(N3CCCc4cc(C)ccc43)n2)cc1`, less than 0.4 µg/mL.
The compound `COc1ccc(Nc2ncnc(-c3ccccc3)n2)cc1` returned a half-inhibitory concentration (IC50) greater than 4.5 µg/mL.
With `COc1cc(Nc2ncnc(Nc3ccc(C(=O)O)cc3)n2)cc(OC)c1OC` the figure was 0.4 to 2.4 µg/mL (≈ 1.01 to 6.04 µM); with `CN(c1cccc(Cl)c1)c1ncnc(Nc2ccncc2)n1`, less than 0.4 µg/mL.
With `COc1cc(Nc2ncnc(N3CCC(O)CC3)n2)cc(OC)c1OC` the figure was greater than 4.5 µg/mL; with `COc1ccc(CNc2nc3ccccc3n2-c2ncnc(Nc3cccc(Cc4nnn[nH]4)c3)n2)cc1`, 0.4 to 2.4 µg/mL (≈ 0.791 to 4.75 µM).
With `COc1ccc(Nc2ncnc(Nc3ccc(C)c(O)c3)n2)cc1OC` the figure was less than 0.4 µg/mL; with `COc1cc(Nc2ncnc(-c3cccnc3NCc3ccccc3)n2)cc(OC)c1OC`, greater than 4.5 µg/mL.
`COc1cc(Nc2ncnc(Nc3nccs3)n2)cc(OC)c1OC` gave an IC50 greater than 4.5 µg/mL.
With `Clc1ccccc1Nc1ncnc(-n2cccc2)n1`, the IC50 was greater than 4.5 µg/mL.
With `CN(c1cccc(Cl)c1)c1ncnc(N(C)c2cccc(Cl)c2)n1` the figure was 0.4 to 2.4 µg/mL (≈ 1.11 to 6.66 µM).
The value for `COc1cc(Nc2ncnc(-c3cccnc3NC(C)C)n2)cc(OC)c1OC` was greater than 4.5 µg/mL.
As for `Nc1nc2ccccc2n1-c1ncnc(Nc2ccc(Cl)cc2)n1`, the concentration for half-maximal inhibition (IC50) lay within 0.4 to 2.4 µg/mL (≈ 1.18 to 7.11 µM).
The value for `c1ccc(Cn2ncc3cc(Nc4ncnc(NCCN5CCCC5)n4)ccc32)cc1` was greater than 4.5 µg/mL; that for `CCN(CC)CCNc1ncnc(N(C)c2cccc(Cl)c2)n1` was 0.4 to 2.4 µg/mL (≈ 1.19 to 7.17 µM).
The value for `C=CCNc1ncccc1-c1ncnc(Nc2ccc(C(N)=O)cc2)n1` was greater than 4.5 µg/mL; that for `c1ccc(CNc2ncccc2-c2ncnc(Nc3cccc(Cn4ccnn4)c3)n2)cc1` was 0.4 to 2.4 µg/mL (≈ 0.918 to 5.51 µM); that for `COc1ccc(Nc2ncnc(N(C)CCc3ccccn3)n2)cc1OC` was 0.4 to 2.4 µg/mL (≈ 1.09 to 6.55 µM).
For `COc1cc(Nc2ncnc(-n3c(NCCCCO)nc4ccccc43)n2)cc(OC)c1OC`, the IC50 is greater than 4.5 µg/mL.
Compound `CC(C)Nc1ncccc1-c1ncnc(Nc2ccc(C(N)=O)cc2)n1` showed an IC50 greater than 4.5 µg/mL.
For `Fc1ccccc1Nc1ncnc(-c2ccccc2)n1`, the IC50 was greater than 4.5 µg/mL.
`COCCOc1ccc(Nc2ncnc(-n3c(N)nc4ccccc43)n2)cc1OC`: the IC50 was in the range of 3.5 to 4.5 µg/mL (≈ 8.59 to 11 µM).
With `COc1cc(Nc2ncnc(-n3ccnc3)n2)cc(OC)c1OC`, the IC50 was greater than 4.5 µg/mL.
The value for `Clc1cc(Nc2ncnc(Nc3ccc4c(cnn4Cc4ccccc4)c3)n2)cc(Cl)c1Cl` was 0.4 to 2.4 µg/mL (≈ 0.805 to 4.83 µM).
Take `COc1ccc2[nH]cc(CCNc3ncnc(Nc4ccc(OC)c(OC)c4)n3)c2c1`: the IC50 is greater than 4.5 µg/mL.
Compound `COc1cc(Nc2ncnc(NN3CCCC3)n2)cc(OC)c1OC` had an IC50 greater than 4.5 µg/mL.
The value for `COCCOc1ccc(Nc2ncnc(Nc3ccc(C)c(O)c3)n2)cc1OC` was less than 0.4 µg/mL; that for `CC[C@H]1CN(c2ccc(-c3ncnc(Nc4cc(OC)c(OC)c(OC)c4)n3)cn2)CCN1` was greater than 4.5 µg/mL.
For `COc1cc(Nc2ncnc(Oc3ccc(OCc4ccccc4)cc3)n2)cc(OC)c1OC`, the IC50 is greater than 4.5 µg/mL.
In the case of `CN1CCN(Cc2cccc(Nc3ncnc(Nc4cccc5ccccc45)n3)c2)CC1`, the IC50 is greater than 4.5 µg/mL.
With `COc1cc(Nc2ncnc(-c3cccnc3Cl)n2)cc(OC)c1OCCN1CCOCC1` the figure was greater than 4.5 µg/mL; with `COc1cc(Nc2ncnc(Nc3cccc(Cl)c3)n2)cc(OC)c1`, less than 0.4 µg/mL; with `COc1cc(Nc2ncnc(-n3c(NCc4ccc(Cl)cc4C)nc4ccccc43)n2)cc(OC)c1OC`, 3.5 to 4.5 µg/mL (≈ 6.58 to 8.46 µM).
The value for `COc1cc(C)c(Nc2ncnc(-c3cccs3)n2)cc1OC` was greater than 4.5 µg/mL; that for `COc1cc(Nc2ncnc(Nc3nnc(-c4ccccc4)[nH]3)n2)cc(OC)c1OC` was greater than 4.5 µg/mL.
The value for `COc1cc(Nc2ncnc(Nc3cc(-c4ccc(Cl)cc4)n[nH]3)n2)cc(OC)c1OC` was 2.4 to 3.5 µg/mL (≈ 5.29 to 7.71 µM); that for `COc1cc(Nc2ncnc(-c3cccnc3Nc3ccc(Cl)cc3C)n2)cc(OC)c1OC` was greater than 4.5 µg/mL; that for `Cc1cccc(Nc2ncnc(Nc3ccc4c(cnn4Cc4ccccc4)c3)n2)c1` was less than 0.4 µg/mL.
Turning to `Cc1ccc2c(c1)CCCN2c1ncnc(NCc2ccccn2)n1`, the IC50 is greater than 4.5 µg/mL.
With `COc1cc(Nc2ncnc(-c3cccnc3Nc3ccccc3C)n2)cc(OC)c1OC` the figure was greater than 4.5 µg/mL; with `COc1cc(Nc2ncnc(-n3cc(CC(N)=O)c4ccccc43)n2)cc(OC)c1OC`, greater than 4.5 µg/mL.
For `COc1cc(Nc2ncnc(Nc3ccc(Cl)cc3F)n2)cc(OC)c1OC`, the IC50 was less than 0.4 µg/mL.
The compound `OCc1ccc(Nc2ncnc(-c3ccccc3)n2)cc1` displayed an IC50 greater than 4.5 µg/mL.
With `COc1cc(Nc2ncnc(Nc3nc4ccccc4s3)n2)cc(OC)c1OC` the figure was greater than 4.5 µg/mL; with `COc1cc(Nc2ncnc(-c3cccnc3CCN)n2)cc(OC)c1OC`, greater than 4.5 µg/mL.
The value for `COc1cc(Nc2ncnc(Nc3ccc(NC(C)=O)c(C(F)(F)F)c3)n2)cc(OC)c1OC` was 2.4 to 3.5 µg/mL (≈ 5.02 to 7.32 µM); that for `Fc1ccc(Nc2ncnc(Nc3ccc4[nH]ncc4c3)n2)cc1Cl` was less than 0.4 µg/mL.

Usually IC50 stands for the concentration at which inhibition is half-maximal.
